One assay concerns the target T1, opioid receptor (Mus musculus, UniProt P42866).
T1 construct: Five CF-1 male mice (Charles River, Portage, Mich.); from tissue; host or cells: living CF-1 male mice (in vivo test; endogenous receptor)
The assay is described as follows: mouse writhing analgesis test: block of morphine-induced analgesia. It is filed as in vivo, CF-1 male mice. More on the design: unit not given here. As to conditions: dose of antagonist that reduced the inhibition of writhing produced by 1.25 mg/kg morphine sulfate to 50%; subcutaneous, 20 min before acetic acid. An outline of the steps:
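Male CF-1 mice (~20 g, fasted overnight, n=5) dosed subcutaneously 20 min before i.p. 0.6% acetic acid; writhes counted for 10 min starting 5 min post-injection. Antagonism measured as blockade of morphine-induced inhibition of writhing, percent versus vehicle controls; ED50 defined as 50% writhing inhibition.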

For assay [1], the target named is T2, peripheral opioid receptors (Mus musculus, UniProt P42866).
T2 construct: Mice maintained (6 mice/cage) on 0.01M saccharin water with 1 g/1 morphine sulfate; from tissue; host or cells: living morphine-maintained mice (in vivo test; endogenous receptor)
The assay is described as follows: precipitated diarrhea in morphine-maintained mice (peripheral opioid activity) and comparison with the writhing test. The conditions noted are these: for Ratio (AD50 mouse writhing test / ED50 mouse diarrhea test): higher ratio = greater relative antagonism of peripheral opioid receptors; for ED50: mouse, 0.5 h, morphine-maintained mice, antagonist subcutaneous or oral, 30 min observation. The assay is classed as in vivo. An outline of the steps: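 Morphine-dependent mice (1 g/l morphine sulfate in drinking water ≥10 days, withdrawn 45 min before dosing) received antagonist subcutaneously or orally, 5 mice/dose. Diarrhea (and jumping) were scored over 30 min and doses lowered to find the diarrhea threshold. Peripheral selectivity was taken as writhing AD50 divided by diarrhea ED50.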

For the next assay, the target named is T3, mu receptor (Rattus norvegicus, UniProt P33535).
T3 construct: rat whole brain minus cerebellum for mu was homogenized; from tissue; host or cells: brain of male Sprague Dawley rats, whole brain minus cerebellum, homogenate fraction
The assay is described as follows: opioid receptor binding assay, [3H] NAL (tritiated naloxone), mu receptor. More on the design: species or system rat (Male Sprague Dawley), brain minus cerebellum. The essentials: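 Displacement of [3H]naloxone was measured on rat whole brain minus cerebellum membranes, preincubated 20 min and incubated 20 min at 37° C, with filtration separating bound ligand. Ki was derived from IC50 and ligand KD. Percent displacement was also recorded at 10 nM and 100 nM test compound.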

The mark [2] stands for this setting: 20 min, 10 nM test compound, [3H] naloxone 0.5 nM, read-out: % displacement at 10 nM.
[3] abbreviates: 20 min, read-out: % displacement at 100 nM.
[4] abbreviates: 20 min, read-out: % displacement at 10 nM, 10 nM test compound, [3H] naloxone 0.5 nM.
Where [5] appears, read: 20 min, read-out: % displacement at 100 nM, 100 nM test compound, [3H] naloxone 0.5 nM.
Setting [6] is: 20 min, 100 nM test compound, [3H] naloxone 0.5 nM, read-out: % displacement at 100 nM.
Where [7] appears, read: 20 min, read-out: % displacement at 10 nM.

The text below walks through data of patent US5250542A, “Peripherally selective piperidine carboxylate opioid antagonists” (Eli Lilly and Company, priority 1992, dated 1993).

Structures can show the parent of a compound that is named as a salt. Where two headings read alike, the source gives them in different places. Where only a bound is given, the exact number is not on record here.

T2 sequence (P42866 whole entry): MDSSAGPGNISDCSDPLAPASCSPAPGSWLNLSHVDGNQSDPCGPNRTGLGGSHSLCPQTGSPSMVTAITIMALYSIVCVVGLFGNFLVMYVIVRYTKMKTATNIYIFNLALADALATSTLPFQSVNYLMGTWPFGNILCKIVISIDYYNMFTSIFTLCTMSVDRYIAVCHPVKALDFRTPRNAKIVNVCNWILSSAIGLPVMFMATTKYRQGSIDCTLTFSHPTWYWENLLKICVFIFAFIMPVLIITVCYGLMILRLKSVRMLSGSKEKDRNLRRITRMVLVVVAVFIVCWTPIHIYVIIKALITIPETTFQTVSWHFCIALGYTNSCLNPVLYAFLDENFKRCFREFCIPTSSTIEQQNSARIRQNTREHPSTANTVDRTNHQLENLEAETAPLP
T1 sequence (P42866 whole entry): as above
T3 sequence (P33535 whole entry): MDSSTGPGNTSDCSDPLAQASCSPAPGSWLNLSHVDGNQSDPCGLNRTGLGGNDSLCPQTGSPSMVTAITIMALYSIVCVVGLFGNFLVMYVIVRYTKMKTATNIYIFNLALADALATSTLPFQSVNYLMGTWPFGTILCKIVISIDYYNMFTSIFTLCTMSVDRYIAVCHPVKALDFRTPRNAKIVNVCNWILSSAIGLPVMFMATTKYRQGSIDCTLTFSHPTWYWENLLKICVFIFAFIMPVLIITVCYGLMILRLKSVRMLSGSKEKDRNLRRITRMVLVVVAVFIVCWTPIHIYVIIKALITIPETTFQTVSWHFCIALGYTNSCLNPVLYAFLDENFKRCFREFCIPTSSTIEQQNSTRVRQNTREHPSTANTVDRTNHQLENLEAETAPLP

Compound `COC(=O)COC(=O)CNC(=O)C(Cc1ccccc1)CN1CC[C@@](C)(c2cccc(O)c2)[C@@H](C)C1` (relative stereo) [Example 85] gave an AD50 on opioid receptor of 9.5. Moreover, in assay [1], the “Ratio (AD50 mouse writhing test / ED50 mouse diarrhea test)” value stood at 190 and it took a dose of 0.05 mg/kg to reach the 50% effect level (ED50). Also, the inhibition at 0.01 µM at mu receptor (setting [2]) turned out to be 93%. For the same compound, the inhibition at 0.1 µM at mu receptor (setting [3]) was determined as 98%.
For `C[C@H]1CN(CC(CC2CCCCC2)C(=O)NCC(=O)O)CC[C@@]1(C)c1cccc(O)c1` (relative stereo) [Example 30, 2-[[3-[4-(3-hydroxyphenyl)-3,4-dimethyl-1-piperidinyl]-2-(cyclohexylmethyl)-1-oxopropyl]-amino]acetic acid monohydrate], the AD50 at opioid receptor is recorded as above 40. Moreover, in assay [1], the “Ratio (AD50 mouse writhing test / ED50 mouse diarrhea test)” value is given as above 2353 and the 50% effect level (ED50) was put at a dose of 0.017 mg/kg. The affinity at mu receptor corresponds to a Ki of 0.42 nM. Besides, on mu receptor (setting [4]), the inhibition at 0.01 µM was found to be 89%. The inhibition at 0.1 µM on mu receptor (setting [5]) was determined as 93%.
For `CCOC(=O)CNC(=O)C(Cc1ccccc1)CN1CC[C@@](C)(c2cccc(OC)c2)[C@@H](C)C1` (single isomer, unassigned) [Example 81], at opioid receptor, the AD50 stood at 13.2. In assay [1], the “Ratio (AD50 mouse writhing test / ED50 mouse diarrhea test)” value was determined as 4 and the ED50 stood at 3.28 mg/kg. Besides, the inhibition at 0.01 µM on mu receptor (setting [2]) stood at 21%. Also, the inhibition at 0.1 µM at mu receptor (setting [6]) was determined as 55%.
As to `CNC(=O)C(Cc1ccccc1)CN1CC[C@@](C)(c2cccc(OC)c2)[C@@H](C)C1` (single isomer, unassigned) [Example 80], the AD50 at opioid receptor is 3.9. In assay [1], the “Ratio (AD50 mouse writhing test / ED50 mouse diarrhea test)” value was 24 and the ED50 was found to be 0.16 mg/kg. Further, the inhibition at 0.01 µM on mu receptor (setting [2]) was determined as 0%. Further, the inhibition at 0.1 µM at mu receptor (setting [6]) was found to be 37%.
Compound `C[C@H]1CN(CC(Cc2ccccc2)C(=O)NCC(=O)OCC2CCCCC2)CC[C@@]1(C)c1cccc(O)c1` (some centres unmarked) [Example 53, 2-[[2-(phenylmethyl)-1-oxo-3-[4-(3-hydroxyphenyl)-3,%-dimethyl-1-piperidinyl]propylamino]-ethanoic acid cyclohexylmethyl estermonohydrochloride] displayed an AD50 on opioid receptor above 40. Also, in assay [1], the “Ratio (AD50 mouse writhing test / ED50 mouse diarrhea test)” value is above 23 and the ED50 was 1.7 mg/kg. The inhibition at 0.01 µM at mu receptor (setting [2]) is 2%. On mu receptor (setting [6]), the inhibition at 0.1 µM amounted to 11%.
For `C[C@H]1CN(CC(CC2CCCCC2)C(=O)NCCC(N)=O)CC[C@@]1(C)c1cccc(O)c1` (some centres unmarked) [Example 38, 3-[[1-oxo-2-cyclohexylmethyl)-3-[4-(3-hydroxyphenyl)-3,4-dimethyl-1-piperidinyl]propyl]-amino]propanamide hydrochloride], the AD50 on opioid receptor was above 40. Besides, in assay [1], the “Ratio (AD50 mouse writhing test / ED50 mouse diarrhea test)” value is above 667 and the 50% effect level (ED50) was put at a dose of 0.06 mg/kg. On mu receptor, this compound yielded a Ki of 0.48 nM. The inhibition at 0.01 µM at mu receptor (setting [4]) turned out to be 98%. On mu receptor (setting [5]), the inhibition at 0.1 µM was found to be 99%.
Turning to `C[C@H]1CN(CCC(C(=O)NCC(=O)O)C2CCCCC2)CC[C@@]1(C)c1cccc(O)c1` (relative stereo) [Example 27, 2-[[2-cyclohexyl-4-[4-(3-hydroxyphenyl)-3,4-dimethyl-1-piperidinyl]-1-oxobutyl]amino]-acetic acid monohydrate], the AD50 on opioid receptor is reported as 15.3. Also, in assay [1], the “Ratio (AD50 mouse writhing test / ED50 mouse diarrhea test)” value is listed as 51 and it took a dose of 0.3 mg/kg to reach the 50% effect level (ED50). This compound also showed a Ki on mu receptor of 0.91 nM. Besides, at mu receptor (setting [7]), the inhibition at 0.01 µM stood at 92%. In addition, the inhibition at 0.1 µM at mu receptor (setting [5]) is 99%.
For `CCOC(=O)C(Cc1ccccc1)CN1CC[C@@](C)(c2cccc(OC)c2)[C@@H](C)C1` (single isomer, unassigned) [Example 78B], the AD50 at opioid receptor amounted to 1.6. Moreover, in assay [1], the “Ratio (AD50 mouse writhing test / ED50 mouse diarrhea test)” value came to 29 and the ED50 is 0.055 mg/kg. Besides, the inhibition at 0.01 µM at mu receptor (setting [2]) came out at 0%. Moreover, the inhibition at 0.1 µM at mu receptor (setting [6]) turned out to be 2%.
`C[C@H]1CN(CC(Cc2ccccc2)C(=O)N(C)CC(=O)O)CC[C@@]1(C)c1cccc(O)c1` (relative stereo) [Example 66, [[2-[[4-(3-hydroxyphenyl)-3,4-dimethyl-1-piperidinyl]methyl]-1-oxo-3-phenylpropyl]-methylamino]acetic acid monohydrate] registered an AD50 at opioid receptor of 14.0. Besides, in assay [1], the “Ratio (AD50 mouse writhing test / ED50 mouse diarrhea test)” value is below 4.7 and the ED50 is below 3 mg/kg. On mu receptor, the Ki came out at 1.96 nM. The inhibition at 0.01 µM at mu receptor (setting [4]) was 70%. The inhibition at 0.1 µM on mu receptor (setting [5]) was found to be 85%.
Take `CCNC(=O)CNC(=O)C(Cc1ccccc1)CN1CC[C@@](C)(c2cccc(OC)c2)[C@@H](C)C1` (single isomer, unassigned) [Example 83]: the AD50 at opioid receptor was 0.71. Also, in assay [1], the “Ratio (AD50 mouse writhing test / ED50 mouse diarrhea test)” value turned out to be 2 and the ED50 came out at 0.04 mg/kg. At mu receptor (setting [2]), the inhibition at 0.01 µM turned out to be 52%. Also, the inhibition at 0.1 µM at mu receptor (setting [6]) was 83%.
On to `CCOC(=O)CCCNC(=O)C(CC1CCCCC1)CN1CC[C@@](C)(c2cccc(O)c2)[C@@H](C)C1` (some centres unmarked) [Example 39, 4-[[3-[3,4-dimethyl-4-(3-hydroxyphenyl)-1-piperidinyl]-2-(cyclohexhymethyl)-1-oxopropyl]-amino]butanoic acid ethyl ester monohydrochloride], for which, at opioid receptor, the AD50 was found to be 11.9. Further, in assay [1], the “Ratio (AD50 mouse writhing test / ED50 mouse diarrhea test)” value was determined as 18 and the ED50 is 0.66 mg/kg. Also, affinity at mu receptor was put at a Ki of 3.75 nM. Besides, the inhibition at 0.01 µM at mu receptor (setting [4]) amounted to 91%. Further, at mu receptor (setting [3]), the inhibition at 0.1 µM was found to be 98%.
Turning to `C[C@H]1CN(CCC(C(=O)NCC(=O)O)c2ccccc2)CC[C@@]1(C)c1cccc(O)c1` (relative stereo) [Example 12, 2-[[4-[4-(3-hydroxyphenyl)-3,4-dimethyl-1-piperidinyl]-2-phenyl-1-oxobutyl]amino]ethanoic acid monohydrate], the AD50 on opioid receptor was determined as 40. Further, in assay [1], the “Ratio (AD50 mouse writhing test / ED50 mouse diarrhea test)” value came to 2667 and it took a dose of 0.015 mg/kg to reach the 50% effect level (ED50). Moreover, at mu receptor, the Ki stood at 1.89 nM. Also, the inhibition at 0.01 µM at mu receptor (setting [4]) amounted to 84%. In addition, the inhibition at 0.1 µM at mu receptor (setting [3]) turned out to be 94%.
`CCOC(=O)C(Cc1ccccc1)CN1CC[C@@](C)(c2cccc(O)c2)[C@@H](C)C1` (relative stereo) [Example 4A, trans-4-(3-hydroxyphenyl)-3,4-dimethyl-a-(phenylmethyl)-1-piperidinepropanoic acid, ethyl ester hydrochloride] came in with an AD50 on opioid receptor of 1.08. Also, in assay [1], the “Ratio (AD50 mouse writhing test / ED50 mouse diarrhea test)” value is listed as 9 and the 50% effect level (ED50) was put at a dose of 0.012 mg/kg. At mu receptor, this compound had a Ki of 1.38 nM. Further, the inhibition at 0.01 µM on mu receptor (setting [7]) was determined as 92%. Besides, the inhibition at 0.1 µM on mu receptor (setting [3]) is 98%.
At opioid receptor, `CCOC(=O)CNC(=O)C(Cc1ccccc1)CN1CC[C@@](C)(c2cccc(O)c2)[C@@H](C)C1` (some centres unmarked) [Example 43, 2-[3-[4-(3-hydroxyphenyl)-3,4-dimethyl-1-piperidinyl]-1-oxo-2-(phenylmethyl)propyl]-amino]acetic acid ethyl ester hydrochloride] registered an AD50 of 1.9. In addition, in assay [1], the “Ratio (AD50 mouse writhing test / ED50 mouse diarrhea test)” value is on record as 146 and the ED50 was determined as 0.013 mg/kg. The compound also returned an inhibition constant Ki on mu receptor of 0.64 nM. The inhibition at 0.01 µM on mu receptor (setting [4]) amounted to 98%. Moreover, at mu receptor (setting [5]), the inhibition at 0.1 µM was found to be 99%.
For the compound `C[C@H]1CN(CC(Cc2ccccc2)C(=O)NCC(=O)OCC(=O)NCc2ccccc2)CC[C@@]1(C)c1cccc(O)c1` (relative stereo) [Example 93], on opioid receptor, the AD50 came out at 29.0. Also, in assay [1], the “Ratio (AD50 mouse writhing test / ED50 mouse diarrhea test)” value is on record as 3625 and the ED50 turned out to be 0.008 mg/kg. At mu receptor (setting [2]), the inhibition at 0.01 µM turned out to be 81%. In addition, the inhibition at 0.1 µM at mu receptor (setting [6]) came out at 95%.
On to `C[C@H]1CN(CCC(C(=O)O)c2ccccc2)CC[C@@]1(C)c1cccc(O)c1` (relative stereo) [Example 8B, trans-4-[(3-Hydroxyphenyl)-3,4-dimethyl-1-piperidine]-2-phenyl butanoic acid hydrochloride], for which the AD50 at opioid receptor was 0.64. In assay [1], the “Ratio (AD50 mouse writhing test / ED50 mouse diarrhea test)” value is recorded as 53 and the 50% effect level (ED50) was put at a dose of 0.012 mg/kg. Further, the inhibition at 0.01 µM on mu receptor (setting [4]) amounted to 100%. For the same compound, the inhibition at 0.1 µM at mu receptor (setting [5]) stood at 100%. Also, the Ki on mu receptor ([3H] naloxone 0.5 nM, pH 7.4, 37° C., 20 min) was 0.27 nM.
